Laboratory results from PubChem BioAssay (NCI).
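1) Cells in 96-well plates. 2) Compound, 48 h, 5 concentrations. 3) Linear interpolation between surrounding doses. 4) Unreached endpoint = highest concentration. The concentration for 50% growth inhibition is given as GI50. TGI: concentration producing complete growth inhibition.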

Legend:
Assay in all cases: growth of human tumour cells (NCI), 48 h
[1] = system: 786-0 renal
[2] = system: OVCAR-4 ovarian
[3] = system: MDA-MB-231 breast
[4] = system: COLO 205 colon
[5] = system: SK-OV-3 ovarian
[6] = system: U251 CNS
[7] = system: SF-268 CNS
[8] = system: UACC-257 melanoma
[9] = system: T-47D breast
[10] = system: BT-549 breast
[11] = system: NCI-H460 lung
[12] = system: NCI/ADR-RES ovarian
[13] = system: MDA-MB-435
[14] = system: SN12C renal
[15] = system: SF-539 CNS
[16] = system: MALME-3M melanoma
[17] = system: NCI-H226 lung
[18] = system: OVCAR-8 ovarian
[19] = system: HCC-2998 colon
[20] = system: SK-MEL-28 melanoma
[21] = system: KM12 colon
[22] = system: TK-10 renal
[23] = system: DU-145 prostate
[24] = system: HCT-116 colon
[25] = system: NCI-H23 lung
[26] = system: HS 578T breast
[27] = system: EKVX NSCLC
[28] = system: HT29 colon
[29] = system: CCRF-CEM leukemia
[30] = system: HOP-92 NSCLC
[31] = system: RXF 393 renal
[32] = system: OVCAR-3 ovarian
[33] = system: SF-295 CNS
[34] = system: MCF7 breast
[35] = system: OVCAR-5 ovarian
[36] = system: HCT-15 colon
[37] = system: HL-60(TB) leukemia
[38] = system: SR leukemia
[39] = system: IGROV1 ovarian
[40] = system: MOLT-4 leukemia
[41] = system: SW-620 colon
[42] = system: SK-MEL-2 melanoma
[43] = system: CAKI-1 renal
[44] = system: SNB-75 CNS
[45] = system: RPMI-8226 leukemia
[46] = system: SNB-19 CNS
[47] = system: A549 NSCLC
[48] = system: UO-31 renal
[49] = system: K-562 leukemia
[50] = system: M14 melanoma
[51] = system: NCI-H522 lung
[52] = system: PC-3 prostate
[53] = system: LOX IMVI melanoma
[54] = system: ACHN renal
[55] = system: UACC-62 melanoma

Structure (SMILES): N#C[Se]Cc1cc(-c2ccccc2)n(-c2ccc(S(N)(=O)=O)cc2)n1
- GI50 [1]: 2630 nM
- TGI [1]: 6490 nM
- GI50 [2]: 2610 nM
- TGI [2]: 8160 nM
- GI50 [3]: 912 nM
- TGI [3]: 3120 nM
- GI50 [4]: 1930 nM
- TGI [4]: 3610 nM
- GI50 [5]: 2690 nM
- TGI [5]: 5260 nM
- GI50 [6]: 544 nM
- TGI [6]: 1780 nM
- GI50 [7]: 336 nM
- TGI [7]: 1330 nM
- GI50 [8]: 2210 nM
- TGI [8]: 6630 nM
- GI50 [9]: 2190 nM
- TGI [9]: 7280 nM
- GI50 [10]: 1680 nM
- TGI [10]: 4550 nM
- GI50 [11]: 264 nM
- TGI [11]: 743 nM
- GI50 [12]: 5510 nM
- TGI [12]: 40000 nM
- GI50 [13]: 605 nM
- TGI [13]: 2450 nM
- GI50 [14]: 527 nM
- TGI [14]: 4100 nM
- GI50 [15]: 1380 nM
- TGI [15]: 2770 nM
- GI50 [16]: 2200 nM
- TGI [16]: 6600 nM
- GI50 [17]: 249 nM
- TGI [17]: 648 nM
- GI50 [18]: 1350 nM
- TGI [18]: > 23200 nM
- GI50 [19]: 2240 nM
- TGI [19]: 4940 nM
- GI50 [20]: 359 nM
- TGI [20]: 1340 nM
- GI50 [21]: 881 nM
- TGI [21]: 3220 nM
- GI50 [22]: 2350 nM
- TGI [22]: 7830 nM
- GI50 [23]: 735 nM
- TGI [23]: 2000 nM
- GI50 [24]: 383 nM
- TGI [24]: 1320 nM
- GI50 [25]: 495 nM
- TGI [25]: 2550 nM
- GI50 [26]: 637 nM
- TGI [26]: 5210 nM
- GI50 [27]: 688 nM
- TGI [27]: 12600 nM
- GI50 [28]: 1460 nM
- TGI [28]: 3360 nM
- GI50 [29]: 914 nM
- TGI [29]: > 27300 nM
- GI50 [30]: 2100 nM
- TGI [30]: 4610 nM
- GI50 [31]: 542 nM
- TGI [31]: 1920 nM
- GI50 [32]: 1180 nM
- TGI [32]: 2980 nM
- GI50 [33]: 444 nM
- TGI [33]: 2480 nM
- GI50 [34]: 420 nM
- TGI [34]: 9780 nM
- GI50 [35]: 1860 nM
- TGI [35]: 3970 nM
- GI50 [36]: 2050 nM
- TGI [36]: 5550 nM
- GI50 [37]: 939 nM
- TGI [37]: 3870 nM
- GI50 [38]: 1370 nM
- TGI [38]: 6130 nM
- GI50 [39]: 322 nM
- TGI [39]: 1080 nM
- GI50 [40]: 433 nM
- TGI [40]: 4360 nM
- GI50 [41]: 2180 nM
- TGI [41]: 4800 nM
- GI50 [42]: 2320 nM
- TGI [42]: 5600 nM
- GI50 [43]: 2070 nM
- TGI [43]: 5240 nM
- GI50 [44]: 590 nM
- TGI [44]: 3510 nM
- GI50 [45]: 1900 nM
- TGI [45]: 5020 nM
- GI50 [46]: 587 nM
- TGI [46]: 1880 nM
- GI50 [47]: 605 nM
- TGI [47]: 2120 nM
- GI50 [48]: 1490 nM
- TGI [48]: 5960 nM
- GI50 [49]: 1150 nM
- TGI [49]: 9880 nM
- GI50 [50]: 240 nM
- TGI [50]: 659 nM
- GI50 [51]: 2140 nM
- TGI [51]: 5550 nM
- GI50 [52]: 711 nM
- TGI [52]: 3560 nM
- GI50 [53]: 171 nM
- TGI [53]: 324 nM
- GI50 [54]: 1980 nM
- TGI [54]: 4220 nM
- GI50 [55]: 1660 nM
- TGI [55]: 3750 nM
